According to patent publication US11981686B2, “Urea compound having substituent” (DAIICHI SANKYO COMPANY, LIMITED, priority 2019, dated 2024):

target: SIRT6 enzyme (Homo sapiens, UniProt Q8N6T7); assay: Measurement of deacetylation activity (SIRT6, AlphaLISA, H3K9(Ac) peptide); assay type: biochemical; settings: SIRT6 25 ng/mL, H3K9(Ac) biotin peptide 2 nM, NAD 10 μM, room temperature 30 minutes, duplicate
Procedure: The reaction was performed in duplicate using a white 384-well plate (3824, Corning or 6008350, PerkinElmer) at a final reaction liquid volume of 20.1 μL. As a control for calculating the enzyme activity, the enzyme-added (DMSO (+)) and enzyme-free (DMSO (−)) wells were set at n=8. Test substances (examples of final concentrations: 0.046, 0.14, 0.41, 1.2, 3.7, 11, 33, and 100 μM) at a concentration of 100 times or 0.1 μL of DMSO was dispensed into the plate and 5 μL of SIRT6 enzyme (prepared by Daiichi Sankyo RD Novare Co., Ltd., final concentration: 25 ng/mL) diluted with an assay buffer (10 mM Tris-HCl pH of 8.0, 0.1% BSA, 0.01% Tween 20, 1 mM DTT, 12.5% Glycerol) was added thereto. The enzymatic reaction was started by adding 5 μL of a mixed solution [Lys(Ac)9]-Histone H3 (1-21)-NH2, H3K9 (Ac), biotin-labeled, amide (AnaSpec, AS-64190, final concentration: 2 nM) and β-nicotinamide adenine dinucleotide (Sigma-Aldrich, N8285-15VL, final concentration: 10 μM), and the reaction was performed at room temperature for 30 minutes. 10 μL of a mixed solution of nicotinamide (Sigma-Aldrich, 72340-100G, final concentration: 100 mM) prepared with AlphaLISA Epigenetics Buffer (PerkinElmer, AL008C), AlphaLISA Anti-unmodified Histone H3 Lysine 9/Lysine 27 (H3K9/K27) Acceptor Beads (PerkinElmer, AL138, final concentration: 10 μg/mL), and AlphaScreen Streptavidin Donor beads (PerkinElmer, 6760002, final concentration: 5 μg/mL) was added thereto, the reaction was performed at room temperature for 60 minutes and then stopped, and acetylation was detected. The emission intensity was measured by EnVision (PerkinElmer).
The relative enzyme activity (%) of the test substance was calculated by the following equation. Relative enzyme activity (%)=[(emission intensity of test substance-added well−emission intensity of DMSO (−) well)/(emission intensity of DMSO (+) well−emission intensity of DMSO (−) well)]×100
The EC150 (the concentration of the compound showing a relative enzyme activity of 150%) of the test substance was calculated based on Sigmoidal dose-response (variable slope) of GraphPad Prism (GraphPad Software) using the value of the relative enzyme activity (%) at each concentration, and the results are listed in Tables 1-1 to 1-5.

SIRT6 enzyme, sequence (Q8N6T7 whole entry, species assumed): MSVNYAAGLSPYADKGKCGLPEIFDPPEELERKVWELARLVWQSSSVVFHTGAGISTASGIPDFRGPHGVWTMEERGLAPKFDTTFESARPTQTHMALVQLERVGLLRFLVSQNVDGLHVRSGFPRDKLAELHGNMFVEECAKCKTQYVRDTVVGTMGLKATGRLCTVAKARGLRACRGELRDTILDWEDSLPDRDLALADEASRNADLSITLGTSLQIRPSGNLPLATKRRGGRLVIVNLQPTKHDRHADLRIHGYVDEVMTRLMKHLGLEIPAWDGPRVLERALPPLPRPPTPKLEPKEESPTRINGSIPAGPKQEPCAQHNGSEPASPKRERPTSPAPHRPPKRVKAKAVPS

| SMILES | EC150 (the concentration of the compound showing a relative enzyme activity of 150%) [μm] |
| --- | --- |
| O=C(NCc1cc[nH]c(=O)c1)Nc1nc2c(s1)CN(c1nc(C3CCC(F)(F)CC3)no1)CC2 [Example 101, N-{5-[3-(4,4-difluorocyclohexyl)-1,2,4-oxadiazol-5-yl]-4,5,6,7-tetrahydro[1,3]thiazolo[5,4-c]pyridin-2-yl}-N′-[(2-oxo-1,2-dihydropyridin-4-yl)methyl]urea] | 1.1 |
| CC(=O)N1CC2Cc3nc(NC(=O)NC(C)C)sc3C(C1)N2c1nc(-c2ccc(F)cc2)no1 (stereo not drawn) [Example 137, N-{6-acetyl-10-[3-(4-fluorophenyl)-1,2,4-oxadiazol-5-yl]-4,5,6,7,8,9-hexahydro-4,8-epimino[1,3]thiazolo[5,4-d]azocin-2-yl}-N′-propan-2-ylurea] | 0.36 |
| O=C(Nc1nc2c(s1)CN(c1nc(C3CCC(F)(F)CC3)no1)CC2)NC1(CO)CC1 [Example 105, N-{5-[3-(4,4-difluorocyclohexyl)-1,2,4-oxadiazol-5-yl]-4,5,6,7-tetrahydro[1,3]thiazolo[5,4-c]pyridin-2-yl}-N′-[1-(hydroxymethyl)cyclopropyl]urea] | 2 |
| O=C(Nc1nc2c(s1)[C@@H]1COC[C@H](C2)N1c1nc(C2(C(F)(F)F)CC2)no1)N[C@@H]1CCOC1 [Example 37, N-[(3R)-oxolan-3-yl]-N′-[(4S,8S)-10-{3-[1-(trifluoromethyl)cyclopropyl]-1,2,4-oxadiazol-5-yl}-4,7,8,9-tetrahydro-5H-4,8-epiminooxocino[5,4-d][1,3]thiazol-2-yl]urea] | 4.6 |
| CN(C)c1ccc2oc(N3[C@@H]4COC[C@H]3c3sc(NC(=O)NCC(C)(C)O)nc3C4)nc2c1 [Example 41, N-{(4S,8S)-10-[5-(dimethylamino)-1,3-benzoxazol-2-yl]-4,7,8,9-tetrahydro-5H-4,8-epiminooxocino[5,4-d][1,3]thiazol-2-yl}-N′-(2-hydroxy-2-methylpropyl)urea] | 2.5 |
| COc1cc2nc(N3[C@@H]4COC[C@H]3c3sc(NC(=O)N[C@@H]5CCOC5)nc3C4)oc2cc1C [Example 45, N-[(4S,8S)-10-(5-methoxy-6-methyl-1,3-benzoxazol-2-yl)-4,7,8,9-tetrahydro-5H-4,8-epiminooxocino[5,4-d][1,3]thiazol-2-yl]-N′-[(3R)-oxolan-3-yl]urea] | 0.79 |
| COCCCNC(=O)Nc1nc2c(s1)CN(c1nc(C3CCC(F)(F)CC3)no1)CC2 [Example 27, N-{5-[3-(4,4-difluorocyclohexyl)-1,2,4-oxadiazol-5-yl]-4,5,6,7-tetrahydro[1,3]thiazolo[5,4-c]pyridin-2-yl}-N′-(3-methoxypropyl)urea] | 2.1 |
| O=C(Nc1nc2c(s1)CN(c1nc(C3CC(F)(F)CCO3)no1)CC2)N[C@@H]1CCOC1 (stereo partly drawn) [Example 95, N-{5-[3-(4,4-difluorooxan-2-yl)-1,2,4-oxadiazol-5-yl]-4,5,6,7-tetrahydro[1,3]thiazolo[5,4-c]pyridin-2-yl}-N′-[(3R)-oxolan-3-yl]urea] | 2.2 |
| CNC(=O)Nc1nc2c(s1)C1CN(C(C)=O)CC(C2)N1c1ncc(-c2cccc(OC(F)F)n2)o1 (stereo not drawn) [Example 128, N-(6-acetyl-10-{5-[6-(difluoromethoxy)pyridin-2-yl]-1,3-oxazol-2-yl}-4,5,6,7,8,9-hexahydro-4,8-epimino[1,3]thiazolo[5,4-d]azocin-2-yl)-N′-methylurea] | 0.43 |
| CNC(=O)Nc1nc2c(s1)C1CN(C(=O)OC)CC(C2)N1c1nnc(-c2cccc(C(=O)C3CC3)c2)o1 (stereo not drawn) [Example 123, Methyl 10-{5-[3-(cyclopropanecarbonyl)phenyl]-1,3,4-oxadiazol-2-yl}-2-[(methylcarbamoyl)amino]-4,7,8,9-tetrahydro-4,8-epimino[1,3]thiazolo[5,4-d]azocine-6(5H)-carboxylate] | 0.66 |
| CNC(=O)Nc1nc2c(s1)CN(c1nc(C(C)OCC(F)(F)F)no1)CC2 (stereo not drawn) [Example 4, N-methyl-N′-(5-{3-[1-(2,2,2-trifluoroethoxy)ethyl]-1,2,4-oxadiazol-5-yl}-4,5,6,7-tetrahydro[1,3]thiazolo[5,4-c]pyridin-2-yl)urea] | 1.2 |
| Cc1cc2nc(N3[C@@H]4COC[C@H]3c3sc(NC(=O)N[C@H](C)CO)nc3C4)oc2cc1C [Example 148, N-[(4S,8S)-10-(5,6-dimethyl-1,3-benzoxazol-2-yl)-4,7,8,9-tetrahydro-5H-4,8-epiminooxocino[5,4-d][1,3]thiazol-2-yl]-N′-[(2R)-1-hydroxypropan-2-yl]urea] | 0.95 |
| COc1cccc(-c2cnc(N3[C@@H]4COC[C@H]3c3sc(NC(=O)N[C@H]5CC[C@@H](O)CC5)nc3C4)o2)n1 [Example 187, N-[(1s,4s)-4-hydroxycyclohexyl]-N′-{(4S,8S)-10-[5-(6-methoxypyridin-2-yl)-1,3-oxazol-2-yl]-4,7,8,9-tetrahydro-5H-4,8-epiminooxocino[5,4-d][1,3]thiazol-2-yl}urea] | 0.64 |
| CNC(=O)Nc1nc2c(s1)C1CN(C(C)=O)CC(C2)N1c1ncc(-c2cccc(OC)n2)o1 (stereo not drawn) [Example 129, N-{6-acetyl-10-[5-(6-methoxypyridin-2-yl)-1,3-oxazol-2-yl]-4,5,6,7,8,9-hexahydro-4,8-epimino[1,3]thiazolo[5,4-d]azocin-2-yl}-N′-methylurea] | 0.38 |
| CNC(=O)Nc1nc2c(s1)[C@@H]1COC[C@H](C2)N1c1nc(-c2ccc(F)cc2)co1 [Example 17, N-{(4S,8S)-10-[4-(4-fluorophenyl)-1,3-oxazol-2-yl]-4,7,8,9-tetrahydro-5H-4,8-epiminooxocino[5,4-d][1,3]thiazol-2-yl}-N′-methylurea] | 1.8 |
| CC(C)(O)CNC(=O)Nc1nc2c(s1)[C@@H]1COC[C@H](C2)N1c1cc(-c2ccc(F)cc2)on1 [Example 63, N-{(4S,8S)-10-[5-(4-fluorophenyl)-1,2-oxazol-3-yl]-4,7,8,9-tetrahydro-5H-4,8-epiminooxocino[5,4-d][1,3]thiazol-2-yl}-N′-(2-hydroxy-2-methylpropyl)urea] | 2.3 |
| COc1ccc2oc(N3[C@@H]4COC[C@H]3c3sc(NC(=O)NC(C)(C)CO)nc3C4)nc2c1 [Example 58, N-(1-hydroxy-2-methylpropan-2-yl)-N′-[(4S,8S)-10-(5-methoxy-1,3-benzoxazol-2-yl)-4,7,8,9-tetrahydro-5H-4,8-epiminooxocino[5,4-d][1,3]thiazol-2-yl]urea] | 2.4 |
| CNC(=O)Nc1nc2c(s1)[C@@H]1COC[C@H](C2)N1c1nnc(-c2cccc(C(=O)C3CC3)c2)o1 [Example 21, N-[(4S,8S)-10-{5-[3-(cyclopropanecarbonyl)phenyl]-1,3,4-oxadiazol-2-yl}-4,7,8,9-tetrahydro-5H-4,8-epiminooxocino[5,4-d][1,3]thiazol-2-yl]-N′-methylurea] | 1.5 |
| CCNC(=O)Nc1nc2c(s1)C1CN(C(C)=O)CC(C2)N1c1nc(-c2ccc(F)cc2)no1 (stereo not drawn) [Example 136, N-{6-acetyl-10-[3-(4-fluorophenyl)-1,2,4-oxadiazol-5-yl]-4,5,6,7,8,9-hexahydro-4,8-epimino[1,3]thiazolo[5,4-d]azocin-2-yl}-N′-ethylurea] | 0.34 |
| CNC(=O)Nc1nc2c(s1)C1COCC(C2)N1c1nnc(-c2cccc(C(F)(F)F)c2)o1 (stereo not drawn) [Example 110, N-methyl-N′-(10-{5-[3-(trifluoromethyl)phenyl]-1,3,4-oxadiazol-2-yl}-4,7,8,9-tetrahydro-5H-4,8-epiminooxocino[5,4-d][1,3]thiazol-2-yl)urea] | 3.7 |
| O=C(Nc1nc2c(s1)CN(c1nc(C3CCC(F)(F)CC3)no1)CC2)N[C@H]1CC[C@H](O)CC1 [Example 26, N-{5-[3-(4,4-difluorocyclohexyl)-1,2,4-oxadiazol-5-yl]-4,5,6,7-tetrahydro[1,3]thiazolo[5,4-c]pyridin-2-yl}-N′-[(1r,4r)-4-hydroxycyclohexyl]urea] | 0.81 |
